Results published in patent publication US9452225B2, “GLP-1 prodrugs” (Novo Nordisk A/S, priority 2012, dated 2016).
Where two headings read alike, the source gives them in different places. Numbered stars: 1 amine (or outer) side, 2 acyl side, 3 side chain; on linkers, the order of the positions; unused ones are H or OH. Side chains are listed from the residue outwards. Peptide text beside a SMILES is read from it. * marks the point of attachment. Decanoyl(10-(4-HOOC-PhO)) = O=C(O)c1ccc(OCCCCCCCCCC(=O)*)cc1; Lactoyl(3-(imidazol-4-yl)) = O=C([C@@H](O)Cc1c[nH]cn1)*; γGlu = O=C(O)[C@H](CCC(=O)[*:2])N[*:1]; AEEA = NCCOCCOCC(=O)O

Tests used:
human GLP-1 receptor = biological target: T1, human GLP-1 receptor (Homo sapiens, UniProt P43220); assay: In vitro potency, AlphaScreen cAMP assay on membranes; format: biochemical; details: cAMP formation, membranes of BHK467-12A cells
T1 construct: expressed in transfected cells; host or cells: BHK cells, clone FCW467-12A (parent line BHKTS13), membranes
Protocol: The purpose of this example is to test the activity, or potency, in vitro of, for example, the GLP-1 parent drugs of the prodrugs of the invention.
Purified plasma membranes from a stable transfected cell line, BHK467-12A (tk-ts13), expressing the human GLP-1 receptor were stimulated with the GLP-1 drug in question, and the potency of cAMP production was measured using the AlphaScreen™ cAMP Assay Kit from Perkin Elmer Life Sciences. The basic principle of The AlphaScreen Assay is a competition between endogenous cAMP and exogenously added biotin-cAMP. The capture of cAMP is achieved by using a specific antibody conjugated to acceptor beads.
A stable transfected cell line and a high expressing clone were selected for screening. The cells were grown at 5% CO2 in DMEM, 10% FCS, 1% Pen/Strep (Penicillin/Streptomycin) and preferably 0.5 (alternatively 1.0 mg/ml) of the selection marker G418.
Cells at approximate 80% confluence were washed twice with PBS and harvested with Versene (aqueous solution of the tetrasodium salt of ethylenediaminetetraacetic acid), centrifuged 5 min at 1000 rpm and the supernatant removed. The additional steps were all made on ice. The cell pellet was homogenised by the Ultrathurax for 20-30 s in 10 ml of Buffer 1 (20 mM Na-HEPES, 10 mM EDTA, pH=7.4), centrifuged 15 min at 20,000 rpm and the pellet resuspended in 10 ml of Buffer 2 (20 mM Na-HEPES, 0.1 mM EDTA, pH=7.4). The suspension was homogenised for 20-30 s and centrifuged 15 min at 20,000 rpm. Suspension in Buffer 2, homogenisation and centrifugation was repeated once and the membranes were resuspended in Buffer 2. The protein concentration was determined and the membranes stored at −80° C. until use.
The assay was performed in flat-bottom 96-well plates (Costar cat. no: 3693). The final volume per well was 50 μl.
AlphaScreen cAMP Assay Kit from Perkin Elmer Life Sciences (cat. No: 6760625M); containing Anti-cAMP Acceptor beads (10 U/μl), Streptavidin Donor beads (10 U/μl) and Biotinylated-cAMP (133 U/μl). […]

[1] = biological target: T2, Dipeptidyl peptidase-4 (DPP-IV) (Homo sapiens, UniProt P27487); assay: Resistance to DPP-IV degradation; format: in vitro ADME; details: for half-life: recombinant dipeptidyl peptidase-4 (DPP-IV), pH 7.4, incubation with DPP-IV, 37° C.; for In (concentration) of parent GLP-1 peptide drug: DPP-IV incubation 37° C.
T2 construct: purchased R&D Systems 1180-SE
Protocol: The purpose of this experiment is to determine the degradation by Dipeptidyl peptidase-4 (DPP-IV) of the parent drugs of the prodrugs of the invention.
The stability of the parent GLP-1 drug of Example B2.1 was tested as described below.
HEPES Buffer (50 mM HEPES Buffer with 0.005% Tween20, pH 7.4)
10 ml 1 M HEPES+100 μl 10% Tween20 adjusted to pH 7.4 and diluted with MilliQ water ad 200 mL
1.0 mM in HEPES buffer 0.1% BSA (Sigma cat. no. A9418)
1.0 mM in hepes buffer pH 7.4
DPP-IV was Recombinant Dipeptidyl Peptidase, R&D Systems, cat no. 1180-SE
50 μl of DPP-IV (0.2 mg/mL), 25 mM MES, 0.7 M NaCl, pH 5.0
Add 200 μl 25 mM TRIS pH 8.0 to Stock vial (DPP-IV concentration 40 μg/mL). Just before use: 210 μl (40 μg/ml) is added 210 μl 50 mM HEPES (DPP-IV concentration 20 μg/mL)
Minimum 30 min, 37° C. with 600 μl 0.1% OVAlbumin. Then left overnight at 4° C. and washed times with 50 mM HEPES.
Minimum 150 min with HEPES buffer at 37° C.
The reactions were terminated by moving 25 μl of the sample into 150 μl cooled 1% TFA in EtOH. Samples were collected in a v-shaped 96-well plate (polypropylene, Costar 3957), (Cat no. cci-3957)). Samples were sealed and kept on ice until analyses.
Samples were diluted 5 times in 50% acetonitrile (1% formic acid) (20 μL+80 μL) and analysed with UPLC-MS.
The amounts of parent GLP-1 drug and DPP-IV cleaved drug were measured from the total ion counts and T½ was determined from a linear fit to the curve of ln (% parent GLP-1 drug) (Y) as a function of time (t), as follows: Y(t)=÷αt+k Math 3 T½=ln 2/α Math 4 T½ (÷BSA): 3466 min T½ (+0.001% BSA): 2311 min

T2 sequence (P27487 29-766 limits assumed): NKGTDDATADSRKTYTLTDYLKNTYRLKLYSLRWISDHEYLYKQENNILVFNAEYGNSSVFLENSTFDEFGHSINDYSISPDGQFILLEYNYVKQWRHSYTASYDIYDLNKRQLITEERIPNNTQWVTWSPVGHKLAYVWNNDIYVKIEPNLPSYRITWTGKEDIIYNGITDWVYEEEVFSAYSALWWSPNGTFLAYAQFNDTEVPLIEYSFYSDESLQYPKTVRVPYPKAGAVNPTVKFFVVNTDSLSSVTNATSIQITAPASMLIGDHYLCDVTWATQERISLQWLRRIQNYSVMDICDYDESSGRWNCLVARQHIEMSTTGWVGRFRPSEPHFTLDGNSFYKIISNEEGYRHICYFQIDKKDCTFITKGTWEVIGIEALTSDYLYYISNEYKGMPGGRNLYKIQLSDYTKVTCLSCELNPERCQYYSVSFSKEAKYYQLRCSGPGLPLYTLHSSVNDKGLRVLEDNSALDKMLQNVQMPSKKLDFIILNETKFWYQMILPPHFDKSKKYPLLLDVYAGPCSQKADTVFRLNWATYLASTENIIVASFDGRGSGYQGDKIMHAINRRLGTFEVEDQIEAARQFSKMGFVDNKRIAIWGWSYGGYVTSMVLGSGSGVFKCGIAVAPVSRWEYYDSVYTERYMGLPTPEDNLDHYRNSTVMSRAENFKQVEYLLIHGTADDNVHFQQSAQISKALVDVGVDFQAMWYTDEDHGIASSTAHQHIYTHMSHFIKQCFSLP
T1 sequence (P43220 24-463): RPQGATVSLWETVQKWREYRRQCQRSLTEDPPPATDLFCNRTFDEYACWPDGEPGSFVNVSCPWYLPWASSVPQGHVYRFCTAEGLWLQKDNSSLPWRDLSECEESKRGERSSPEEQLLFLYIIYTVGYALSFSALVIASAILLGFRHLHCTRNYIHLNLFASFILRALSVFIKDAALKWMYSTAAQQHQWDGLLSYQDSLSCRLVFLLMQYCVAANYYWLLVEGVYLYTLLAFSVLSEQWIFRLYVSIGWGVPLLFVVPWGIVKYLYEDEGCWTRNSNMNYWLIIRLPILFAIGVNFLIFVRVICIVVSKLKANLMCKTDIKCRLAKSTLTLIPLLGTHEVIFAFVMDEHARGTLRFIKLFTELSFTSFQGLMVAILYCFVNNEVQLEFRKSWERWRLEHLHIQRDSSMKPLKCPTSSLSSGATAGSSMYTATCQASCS

SMILES	EC50 (human GLP-1 receptor)	half-life ([1]; +0.001% BSA, read-out: T½ (+0.001% BSA))	half-life ([1]; without BSA, read-out: T½ (÷BSA))	In (concentration) of parent GLP-1 peptide drug ([1]; with BSA, time 1.0 minutes)	In (concentration) of parent GLP-1 peptide drug ([1]; with BSA, time 32 minutes)	In (concentration) of parent GLP-1 peptide drug ([1]; with BSA, time 60 minutes)	In (concentration) of parent GLP-1 peptide drug ([1]; with BSA, time 120 minutes)	In (concentration) of parent GLP-1 peptide drug ([1]; with BSA, time 183 minutes)	In (concentration) of parent GLP-1 peptide drug ([1]; with BSA, time 1440 minutes)	In (concentration) of parent GLP-1 peptide drug ([1]; without BSA, time 1.0 minutes)	In (concentration) of parent GLP-1 peptide drug ([1]; without BSA, time 32 minutes)	In (concentration) of parent GLP-1 peptide drug ([1]; without BSA, time 60 minutes)	In (concentration) of parent GLP-1 peptide drug ([1]; without BSA, time 120 minutes)	In (concentration) of parent GLP-1 peptide drug ([1]; without BSA, time 183 minutes)	In (concentration) of parent GLP-1 peptide drug ([1]; without BSA, time 1440 minutes)
CC[C@H](C)[C@H](NC(=O)[C@H](Cc1ccccc1)NC(=O)[C@H](CCC(=O)O)NC(=O)[C@H](CCCNC(=N)N)NC(=O)[C@@H](NC(=O)[C@H](C)NC(=O)[C@H](CCC(N)=O)NC(=O)[C@H](CCC(=O)O)NC(=O)[C@H](CCC(=O)O)NC(=O)[C@H](CC(C)C)NC(=O)[C@H](Cc1ccc(O)cc1)NC(=O)[C@H](CCCCNC(=O)COCCOCCNC(=O)COCCOCCNC(=O)CC[C@H](NC(=O)CCCCCCCCCOc1ccc(C(=O)O)cc1)C(=O)O)NC(=O)[C@H](CO)NC(=O)[C@@H](NC(=O)[C@H](CC(=O)O)NC(=O)[C@H](CO)NC(=O)[C@@H](NC(=O)[C@H](Cc1ccccc1)NC(=O)[C@@H](NC(=O)CNC(=O)[C@H](CCC(=O)O)NC(=O)[C@H](C)NC(=O)[C@@H](O)Cc1c[nH]cn1)[C@@H](C)O)[C@@H](C)O)C(C)C)C(C)C)C(=O)N[C@@H](C)C(=O)N[C@@H](CCCCNC(=O)COCCOCCNC(=O)COCCOCCNC(=O)CC[C@H](NC(=O)CCCCCCCCCOc1ccc(C(=O)O)cc1)C(=O)O)C(=O)N[C@@H](CC(C)C)C(=O)N[C@H](C(=O)N[C@@H](CCCNC(=N)N)C(=O)NCC(=O)N[C@@H](CCCNC(=N)N)C(=O)NCC(=O)O)C(C)C [Example B2.1] ({Lactoyl(3-(imidazol-4-yl))}-AEGTFTSDVSK([AEEA-AEEA-γGlu-Decanoyl(10-(4-HOOC-PhO))])YLEEQAVREFIAK([AEEA-AEEA-γGlu-Decanoyl(10-(4-HOOC-PhO))])LVRGRG-OH)	100 pM	38.5 h	57.8 h	4.61	4.61	4.58	4.40	4.58	4.47	4.61	4.59	4.63	4.50	4.64	4.45
CC[C@H](C)[C@H](NC(=O)[C@H](Cc1ccccc1)NC(=O)[C@H](CCC(=O)O)NC(=O)[C@H](CCCCNC(=O)COCCOCCNC(=O)COCCOCCNC(=O)CC[C@H](NC(=O)CCCCCCCCCOc1ccc(C(=O)O)cc1)C(=O)O)NC(=O)[C@H](C)NC(=O)[C@H](C)NC(=O)[C@H](CCC(N)=O)NC(=O)[C@H](CCC(=O)O)NC(=O)[C@H](CCC(=O)O)NC(=O)[C@H](CC(C)C)NC(=O)[C@H](Cc1ccc(O)cc1)NC(=O)[C@H](CCCCNC(=O)COCCOCCNC(=O)COCCOCCNC(=O)CC[C@H](NC(=O)CCCCCCCCCOc1ccc(C(=O)O)cc1)C(=O)O)NC(=O)[C@H](CO)NC(=O)[C@@H](NC(=O)[C@H](CC(=O)O)NC(=O)[C@H](CO)NC(=O)[C@@H](NC(=O)[C@H](Cc1ccccc1)NC(=O)[C@@H](NC(=O)CNC(=O)[C@H](CCC(=O)O)NC(=O)[C@H](C)NC(=O)[C@@H](O)Cc1c[nH]cn1)[C@@H](C)O)[C@@H](C)O)C(C)C)C(=O)N[C@@H](C)C(=O)N[C@@H](Cc1c[nH]c2ccccc12)C(=O)N[C@@H](CC(C)C)C(=O)N[C@H](C(=O)N[C@@H](CCC(N)=O)C(=O)NCC(=O)N[C@@H](CCCNC(=N)N)C(=O)NCC(=O)O)C(C)C [Example B2.3] ({Lactoyl(3-(imidazol-4-yl))}-AEGTFTSDVSK([AEEA-AEEA-γGlu-Decanoyl(10-(4-HOOC-PhO))])YLEEQAAK([AEEA-AEEA-γGlu-Decanoyl(10-(4-HOOC-PhO))])EFIAWLVQGRG-OH; C-terminus assumed)	1300 pM	–	–	–	–	–	–	–	–	–	–	–	–	–	–
